Results: the Deep4Chem optical property database

Assay: solvent given as SMILES

Q: Which absorption maximum (in CC#N) does the source give for `COc1ccc(-c2sc3c(-c4ccc(OC)cc4)c4n(c3c2-c2ccc(OC)cc2)[B-](F)(F)[N+]2=Cc3c(-c5ccc(OC)cc5)c5sc(-c6ccc(OC)cc6)c(-c6ccc(OC)cc6)c5n3[B-](F)(F)[N+]2=C4)cc1` here?
A: 587 nm

Q: What about the absorption maximum (in CCCCCC) of the same compound?
A: 595 nm

Q: And the absorption maximum (in CN(C)C=O)?
A: 593 nm

Q: And the absorption maximum (in Cc1ccccc1)?
A: 610 nm

Q: And the absorption maximum (in ClCCl)?
A: 600 nm

Q: Which absorption maximum (in ClCCl) does the source give for `COC(=O)c1[nH]c(-c2ccccc2)c2nnc3ccc(OC)cc3c12` here?
A: 392 nm

Q: Which absorption maximum (in ClC(Cl)Cl) does the source give for `CCCCCCCCN1C(=O)c2ccc3c4c(-c5ccc(N(c6ccccc6)c6ccccc6)cc5)cc5c6c(ccc(c7c(-c8ccc(N(c9ccccc9)c9ccccc9)cc8)cc(c2c37)C1=O)c64)C(=O)N(CCCCCCCC)C5=O` here?
A: 645 nm

Q: For `C(=C(c1ccccc1)c1ccccc1)c1ccc(C=C(c2ccccc2)c2ccccc2)cc1`, which absorption maximum (in C1CCOC1) is on record?
A: 352 nm

Q: With `C[NH+](C)c1c2ccccc2cc2ccccc12` as the compound, how does the absorption maximum (in O) read?
A: 389 nm

Q: For `CC1=N/C(=C\c2cccc(N(C)C)c2)C(=O)N1CCO`, which absorption maximum (in C1CCOC1) is on record?
A: 354 nm

Q: What about the absorption maximum (in CC#N) of the same compound?
A: 352 nm

Q: What about the absorption maximum (in CCCCCC) of the same compound?
A: 352 nm

Q: Which absorption maximum (in C1COCCO1) does the source give for `COC(=O)c1ccc(/C=C2\N=C(c3ccc(OC)c(OC)c3)NC2=O)cc1` here?
A: 403 nm

Q: With `Cc1cc(C)c(C2=C3C=CC=[N+]3[B-]3(c4cccc5ccccc45)Oc4cc(O)cc5c6ccc(C)cc6c6cc2n3c6c45)c(C)c1` (centres undefined) as the compound, how does the absorption maximum (in ClC(Cl)Cl) read?
A: 646 nm

Q: With `CCC(C)[Si](C#Cc1c2nc3c4ccccc4c(=O)c4ccccc4c3nc2c(C#C[Si](C(C)CC)(C(C)CC)C(C)CC)c2nc3c4ccccc4c(=O)c4ccccc4c3nc12)(C(C)CC)C(C)CC` (centres undefined) as the compound, how does the absorption maximum (in ClCCl) read?
A: 544 nm

Q: For `COc1ccc2cc(-c3ccc(-c4cc5ccc(OC)cc5oc4=O)cc3)c(=O)oc2c1`, which absorption maximum (in ClC(Cl)Cl) is on record?
A: 362 nm

Q: Which absorption maximum (in CC#N) does the source give for `Cc1cc(O)c(C(=O)/C=C/c2ccc(O)c(O)c2)c(=O)o1` here?
A: 390 nm

Q: What about the absorption maximum (in ClCCl) of the same compound?
A: 387 nm

Q: With `COc1ccc(C2=C(c3ccc(OC)cc3)C(C)(C)c3ccc4ccccc4c32)cc1` as the compound, how does the absorption maximum (in C1CCCCC1) read?
A: 336 nm

Q: Which absorption maximum (in O) does the source give for `[NH3+]C(Cc1ccc(O)c(O)c1)C(=O)[O-]` (centres undefined) here?
A: 278 nm

Q: What does the source list for `CN(C)c1ccc(/C=C/c2cc[n+](CCCOCC(COCCC[n+]3ccc(/C=C/c4ccc(N(C)C)cc4)cc3)(COCCC[n+]3ccc(/C=C/c4ccc(N(C)C)cc4)cc3)COCCC[n+]3ccc(/C=C/c4ccc(N(C)C)cc4)cc3)cc2)cc1`?
A: absorption maximum (in C1COCCO1): 460 nm; absorption maximum (in CC(C)O): 479 nm; absorption maximum (in CCCCCCCCO): 485 nm; absorption maximum (in CCCCO): 480 nm; absorption maximum (in CCCO): 482 nm; absorption maximum (in CCO): 484 nm; absorption maximum (in CO): 486 nm; absorption maximum (in CS(C)=O): 479 nm; absorption maximum (in ClC(Cl)Cl): 489 nm; absorption maximum (in ClCCl): 489 nm

Q: With `CN(C)c1ccc2[c](c1)[Sn]([CH3])([CH3])[C]1=CC(=[N+](C)C)C=CC1=C2` as the compound, how does the absorption maximum (in O) read?
A: 614 nm

Q: With `Clc1ccc(-c2cccc3ncc(-c4ccccc4)n23)cc1` as the compound, how does the absorption maximum (in ClCCl) read?
A: 338 nm

Q: For `COc1ccc(-c2csc(/C(C#N)=C/c3ccccc3Cl)n2)cc1`, which absorption maximum (in CC#N) is on record?
A: 372 nm

Q: Which absorption maximum (in CCO) does the source give for `CC/[NH+]=c1\cc2oc3cc(NCCOC(=O)C(NC(=O)OC(C)(C)C)C(C)C)c4ccccc4c3nc-2cc1C` (centres undefined) here?
A: 590 nm

Q: What about the absorption maximum (in O) of the same compound?
A: 590 nm

Q: What does the source list for `CSc1cc(-c2cc3cc4c5c(c3oc2=O)CCCN5CCC4)oc(=O)c1C#N`?
A: absorption maximum (in C1CCOC1): 532 nm; absorption maximum (in CC#N): 537 nm; absorption maximum (in CC(C)=O): 536 nm; absorption maximum (in CCOC(C)=O): 527 nm; absorption maximum (in CN(C)C=O): 545 nm; absorption maximum (in CO): 537 nm; absorption maximum (in CS(C)=O): 549 nm; absorption maximum (in Cc1ccccc1): 527 nm; absorption maximum (in ClC(Cl)Cl): 538 nm; absorption maximum (in ClCCl): 541 nm

Q: Which absorption maximum (in ClCCl) does the source give for `Cc1cc2ccccc2c2c1c1ccccc1n2-c1ccccc1` here?
A: 303 nm

Q: For `CCCCN1\C(=C/C=C/C=C/C2=[N+](CCCC)c3ccc4cc(Br)ccc4c3C2(C)C)C(C)(C)c2c1ccc1cc(Br)ccc21`, which absorption maximum (in C1CCOC1) is on record?
A: 685 nm

Q: What about the absorption maximum (in CC#N) of the same compound?
A: 682 nm

Q: And the absorption maximum (in CC(C)=O)?
A: 685 nm

Q: And the absorption maximum (in CCO)?
A: 688 nm

Q: And the absorption maximum (in CN(C)C=O)?
A: 689 nm

Q: What about the absorption maximum (in CO) of the same compound?
A: 683 nm

Q: What about the absorption maximum (in CS(C)=O) of the same compound?
A: 692 nm

Q: And the absorption maximum (in ClCCl)?
A: 699 nm
